# Results reported in patent US4440770A, “Diuretic, hypotensive and antiedemic quinoline oximes” (Mochida Seiyaku Kabushiki Kaisha, priority 1980, dated 1984).
# Columns and labels:
# [1] = Acute oral toxicity in mice; settings: mouse, in vivo, mortality 7 days after administration
# Experimental: 10 ddY Strain male mice weighing about 20 g were used in each group. Each compound of this invention was suspended in a 5% aqueous gum arabic solution and administered orally. The mortality rate (%) was determined from the number of dead animals 7 days after the administration, and the dosage corresponding to 50% mortality was calculated and expressed as LD50 (mg/kg).
# rats = test: Diuretic effect in rats; assay type: in vivo, Wister strain male rats; settings: Rattus norvegicus, po, 5 h, urine volume up to 5 hours, % of control
# Experimental: Wister strain male rats weighing about 200 g were starved overnight and each compound of this invention suspended in 25 ml/kg of physiological saline were administered orally to the 5 animals in each group, and the diuretic effect up to 5 hours after the administration was measured. The diuretic effect is expressed as the average urine volume (%) of the treated group divided by that of the control group.
# [2] = Properties of respective derivatives (solubility); assay type: physicochemical
# [3] = test system: Carrageenin-Induced Foot Edema; test: Inhibition for carrageenin-induced foot edema in rats; assay type: in vivo, Wister strain male rats; settings: Rattus norvegicus, po, 1 hour before carrageenin, paw volume 3 hours after, probit method, read-out: ED30 (dosage for 30% inhibition of edema)
# Experimental: 10 Wister strain male rats weighing about 120 g were used in each group. Each compound of this invention was suspended in a 5% aqueous arabic gum solution and administered orally to the animals. One hour after the administration, 0.1 ml of a 1% solution of carrageenin in physiological saline as a phlogistic agent was subcutaneously injected into the right hind paw of the rats which had been shaven previously. The volume of the right hind paw was measured before the administration of the phlogistic agent and 3 hours after the administration. The intensity of edema expressed as percent increase in the foot volume was calculated from the […] (1) and the percent inhibition of edema was calculated from the equation (2). [formula]
# The effective dosage of each compound for inhibiting edema was expressed as ED30 (mg/kg) by calculating the dosage for 30% inhibition from the percent inhibition of edema according to the probit method.
compound,measurement,setting,value
"CN(C)C(=O)N1CCC(=NO)c2cc(Cl)ccc21 [XXII, 6-Chloro-4-oximino-1-dimethylcarbamoyl-1,2,3,4-tetrahydroquinoline]",LD50 at 168 h,[1],> 5000 mg/kg
same,response vs control in vivo at 10 mg/kg,rats; dosage 10 mg/kg,198%
same,response vs control in vivo at 20 mg/kg,rats; dosage 20 mg/kg,263%
same,Solubility in ethanol and dichloromethane,[2],soluble
same,Solubility in water and hexane,[2],Sparingly soluble
same,ED30,[3],34 mg/kg
"CN(C)C(=O)N1CCC(=NO)c2cc(Br)ccc21 [XXIII, 6-Bromo-4-oximino-1-dimethylcarbamoyl-1,2,3,4-tetrahydroquinoline]",LD50 at 168 h,[1],> 5000 mg/kg
same,response vs control in vivo at 50 mg/kg,rats; dosage 50 mg/kg,200%
same,Solubility in ethanol and dichloromethane,[2],soluble
same,Solubility in water and hexane,[2],Sparingly soluble
same,ED30,[3],51 mg/kg
